Experimental data as given in patent EP3763715A1, “HARRINGTONINES SALTS, IN PARTICULAR RETINOATES, THEIR PROCESS OF PREPARATION AND THEIR USES IN THE TREATMENT OF LEUKEMIAS, CANCERS, AUTOIMMUNE, SKIN, ALZHEIMER'S AND INFLAMMATORY BOWEL DISEASES AND VIRAL INFECTIONS, COMBINED WITH MYELOPOIESIS STIMULATING AGENTS” (Robin, Jean-Pierre, priority 2019, dated 2021).

Tests used:
[1] = Solubility determination in water; format: physicochemical; details: 25° C., semi-quantitative
Protocol: Solubility in water at 25° C. was measured semi-quantitatively at a threshold of 5 g per 100 mL. All the homoharringtonine salts described in the below examples, unless otherwise stated, are soluble at this threshold. Homoharringtonine base itself is soluble at a threshold lower than 0.1 g per mL.

Swiss nu/nu mice = assay: Toxicity seen in mice bearing MDA-MB-468 xenografts (in vivo efficacy study); details: 1 mg/kg, subcutaneously, bi-daily, mice with MDA-MB-468 xenografts; all mice died after only a few days; preliminary experiment, data not shown
Protocol: The experiments were conducted according to the Guide for the Care and Use of Laboratory Animals published by the US National Institutes of Health (NIH Publication n°85-23, revised 1996) and approved by the Ethic Committee of Clermont-Ferrand, France. All mouse studies were conducted in the animal facility of the INSERM U1240. Six weeks old Swiss nu/nu mice were purchased from Charles River Laboratories France and housed in standard conditions (n=5 per cage on ventilated racks, at 21-24 °C, 60% humidity, 12 h light/12 h dark cycle) with ad libitum access to irradiated food and water. […]
For assessment of HHT toxicity, groups of 6 mice were injected with sterile saline or 1, 2, 4 or 8 mg/kg of the drug, subcutaneously, bi-daily, over 7 days. […] The number of live animals was determined at days 4, 8 and 10, after treatment initiation.
For evaluation of HHT efficacy in vivo, when xenografts reached a volume of 200±20 mm^3, mice were randomized into the control or the treated group. […] Tumor size was non-invasively assessed using a digital caliper on days 3, 6, 8 and 10 after treatment initiation. Tumor volume was calculated using the following formula: V=(length×width^2)/2.

HL-60 cell line = assay: Testing on HL-60 leukemia cell line (MTT cytotoxicity); format: cell-based, human; details: HL-60 cells, medium with 20% fetal bovine serum, preliminary screening, read-out: HL60 (APL) IC50
Protocol: (§1) Retinoates of harringtonines described in this invention were tested on K562 cell line which is derived from the pleural effusion of a person with chronic myelogenous leukemia (CML, bcr-abl positive) in terminal blast crises (Lozzio and Lozzio, Blood, 1975, p321). The cell line was purchased from ATCC (American Tissue Culture Collection) and grown in RPMI medium supplemented with 10% heat-inactivated fetal calf serum, 2 mmol/L glutamine, […] penicillin and […] streptomycin. All tested products were initially dissolved in 2N HCl (pH=2) (alkaloid base) or in aqueous solvent (salt) or in DMSO (retinoids), supplemented with ultrasound treatment during 1 h. Working concentrations were made by dilution in culture medium (pH 7). Cells in exponential growth phase were placed into 96-microwell plates in concentration 3x10^4/mL (total volume 200 µL/well) and incubated with drugs for 72 h at 37° C. in 5% CO2 humidified atmosphere. Following incubation, 28 µL of MTT 3-(4,5 dimethylthiazol-2-yl)-2,5 tetrazolium bromide] dye solution (Sigma, St. Louis, Mo.) was added to each well. During the following 6 h of incubation at 37° C., the purple formazan product was formed by conversion of the yellow MTT salt in the mitochondria of the viable cells. The resulting precipitate was dissolved in DMSO and the amount of converted MTT was quantified in an ELISA reader (MR 5000, Dynatech). Each product was tested in triplicate (3x8 wells). Every test contained at least one plate with HHT as control, added in the same concentration as the tested products.
Retinoates of harringtonines described in this invention were tested on HL-60 cell line, derived from acute promyelocytic leukemia (APL) cells. HL-60 is a promyelocytic cell line derived by S.J. Collins, et al. (Proc. Natl. Acad. Sci. USA 1978 p2458). Peripheral blood leukocytes were obtained by leukopheresis from a person with APL (Gallagher R, et al. Blood 1978, p713) The cell line was purchased from ATCC (American Tissue Culture Collection) and the base growth medium was also completed with fetal bovine serum but at a final concentration of 20%, otherwise the same method than the one of example 10 was used.
Preliminary screening using this tumor cell lines are gathered in table 1.

K562 cell line = assay: Testing on K562 leukemia cell line (MTT cytotoxicity); format: cell-based, human; details: K562 cells, 72 h incubation, preliminary screening, read-out: K562 (CML) IC50
Protocol: as §1

MDA-MB-468 = assay: Testing on breast cancer cell lines, sulforhodamine B (SRB) cell viability assay; format: cell-based, human; details: MDA-MB-468 breast cancer cells, preliminary screening, read-out: M DA-MB-468 (BC) IC50
Protocol: Operating Procedure were performed as described in the recent paper of Yakhni et al [Yakhni AM J CANCER RES 2019; 9(5) in press "Homoharringtonine, on approved anti-leukemia drug, suppresses triple negative breast cancer growth through a rapid reduction of anti-apoptotic protein abundance"]
The cell lines used in this study were MDA-MB-231 (ATCC® HTB-26™), MDA-MB-468 (ATCC® HTB-132™), MDA-MB-157 (ATCC® HTB-24™) and CAL-51. Those lines were chosen to represent the BRCA1/2 non-mutated TNBC transcriptomic subtypes, currently most in need of efficacious treatment due to lower sensibility of BRCA1 wild-type TNBC to the DNA-damaging chemotherapy (Masuda et al., Clin Cancer Res. 2013, p5533; Jiang et al., PLoS Med. 2016, pe1002193; Park et al. ESMO Open. 2018, pe000357). CAL-51 line represents the mesenchymal transcriptomic subtype whereas MDA-MB-157 and MDA-MB-231 represent the mesenchymal stem-like subtype (Lehmann et al. J Clin Invest. 2011, p2750). MDA-MB-468 was used as a model of aggressive, PTEN-negative TNBC, with hyperactivated EGFR signaling pathway due to EGFR amplification (Filmus et al., Biochem Biophys Res Commun. 1985, p898). MDA-MB-468 transcriptome classifies it into the basal-like 1 subtype (49). The MDA lines were purchased from the American Type Culture Collection (ATCC, Manassas, VA, USA). The CAL-51 was kindly provided by Dr Gerard Milano, from the Centre Antoine Lacassagne, Nice, France, where the line has been established (Gioanni et al., Br J Cancer 1990, p8). After initial expansion, the cell line stock vials were conserved, in liquid nitrogen, at the Biological Resource Center of Jean Perrin Comprehensive Cancer Center (biobank ID BB-0033-00075, Clermont-Ferrand, France). The MDA cell lines were cultured in the Leibovitz L-15 medium, whereas CAL-51 line was maintained in DMEM (both media from Invitrogen Life Technologies, Carlsbad, CA, USA). The media were supplemented with 10% heat-inactivated fetal bovine serum and […] gentamicin. CAL-51 line was kept at 37°C, in a humidified atmosphere with 5% CO2; the MDA lines were kept under the same conditions, however, without CO2, in a free gas exchange with atmospheric air. All cell lines were maintained in monolayer culture, in the sub-confluent status, with no more 30 passages of the cells thawed from the stock vial.
Homoharringtonine was supplied by LeukePharma Inc. (Houston, TX, USA) as water-soluble, crystalline tartaric acid salt. Initial stock solution of HHT-tartrate was prepared at 10 mM in sterile deionized water, aliquoted and kept at -80°C. For each experiment, a fresh HHT solution was prepared by dissolving the HHT stock in phosphate-buffered saline (PBS, GIBCO™, Invitrogen, Cergy-Pontoise, France).
Cell viability was assessed using the sulforhodamine B (SRB) assay (Sigma-Aldrich, St Louis, MO, USA) according to the method described by Vichai and Kirtikara (Nat Protoc. 2006, p1112). Cells were seeded in 96-well plates, at 5x10^3 or 1x10^3 cells/well (the MDA cell lines and CAL-51, respectively), left overnight to adhere and then treated with growing concentrations of HHT for 24h, 48h or 72h. After incubation with the drug, cells were washed twice with PBS and left for 72 h in the corresponding complete culture medium. Then the cells were fixed with trichloroacetic acid (final concentration 10%) at 4°C for 1 h, followed with plate washing with water five times, air drying and staining with 0.4% SRB dissolved in 1% acetic acid, at room temperature, for 30 min. The plates were subsequently washed four times with 1% acetic acid to remove unbound stain. To solubilize the protein-bound dye, 10 mM Tris base solution was added to each well. The cell viability, estimated through the present protein biomass, was determined by measuring optical density of the dye, using a spectrophotometer at wavelength of 540 nm (BMG Labtech, Ortenberg, Germany).
Preliminary screening using these tumor cell lines are gathered in table 1.

| Compound | solubility [1] [mg/mL] | toxicity for the animals (Swiss nu/nu mice) | IC50 (HL-60 cell line) [µM] | IC50 (K562 cell line) [µM] | IC50 (MDA-MB-468) [µM] |
| --- | --- | --- | --- | --- | --- |
| COC(=O)C[C@](O)(CCCC(C)(C)O)C(=O)O[C@@H]1C(OC)=C[C@]23CCCN2CCc2cc4c(cc2[C@H]13)OCO4 [Homoharringtonine base, Homoharringtonine] | < 100 | – | – | – | – |
| COC(=O)C[C@](O)(CCCC(C)(C)O)C(=O)O[C@@H]1C(OC)=C[C@]23CCCN2CCc2cc4c(cc2[C@H]13)OCO4 [HHT, Homoharringtonine] | – | too toxic | – | – | – |
| COC(=O)CC(O)(CCCC(C)(C)O)C(=O)O[C@@H]1C(OC)=C[C@]23CCCN2CCc2cc4c(cc2[C@H]13)OCO4.O=C(O)c1ccc(-c2ccc3cc(O)c(C45CC6CC(CC(C6)C4)C5)cc3c2)cc1 (stereo partly drawn) [Example 12, Butanedioic acid, 2-hydroxy-2-(4-hydroxy-4-methylpentyl)-, 1-[(1S,3aR,14bS)-1,5,6,8,9,14b-hexahydro-2-methoxy-4H-cyclopenta[a][1,3]dioxolo[4,5-h]pyrrolo[2,1-b][3]benzazepin-1-yl]4-methyl ester, 4-(6-Hydroxy-7-tricyclo[3.3.1.1^3,7]dec-1-yl-2-naphthalenyl)benzoate] | – | – | < 0.1 | < 0.05 | < 0.05 |
| COC(=O)C[C@](O)(CCCC(C)(C)O)C(=O)O[C@@H]1C(OC)=C[C@]23CCCN2CCc2cc4c(cc2[C@H]13)OCO4.COc1ccc(-c2ccc3cc(C(=O)O)ccc3c2)cc1C12CC3CC(CC(C3)C1)C2 [Example 8, homoharringtonine "adapalenoate"] | – | – | < 0.1 | < 0.05 | < 0.05 |
| CC1(C)CC=C(c2cnc3ccccc3c2)c2cc(C(=O)Nc3ccc(C(=O)O)cc3)ccc21.COC(=O)CC(O)(CCCC(C)(C)O)C(=O)O[C@@H]1C(OC)=C[C@]23CCCN2CCc2cc4c(cc2[C@H]13)OCO4 (stereo partly drawn) [Example 10, Butanedioic acid, 2-hydroxy-2-(4-hydroxy-4-methylpentyl)-, 1-[(1S,3aR,14bS)-1,5,6,8,9,14b-hexahydro-2-methoxy-4H-cyclopenta[c][1,3]dioxolo[4,5-h]pyrrolo[2,1-b][3]benzazepin-1-yl]4-methyl ester, 4-[[[5,6-Dihydro-5,5-dimethyl-8-(3-quinolinyl)-2-naphthalenyl]carbonyl]amino]benzoate] | – | – | < 0.1 | < 0.05 | < 0.05 |
| OP5215 adarotenoate [Example 28] | – | – | < 0.02 | < 0.01 | < 0.01 |
| OP5215 tamibarotenoate [Example 26] | – | – | < 0.02 | < 0.01 | < 0.01 |
| CC1(C)C(=O)C(C)(C)c2cc(C(=O)Nc3ccc(C(=O)O)cc3)ccc21.COC(=O)CC(O)(CCCC(C)(C)O)C(=O)O[C@@H]1C(OC)=C[C@]23CCCN2CCc2cc4c(cc2[C@H]13)OCO4 (stereo partly drawn) [Example 15, Butanedioic acid, 2-hydroxy-2-(4-hydroxy-4-methylpentyl)-, 1-[(1S,3aR,14bS)-1,5,6,8,9,14b-hexahydro-2-methoxy-4H-cyclopenta[a][1,3]dioxolo[4,5-h]pyrrolo[2,1-b][3]benzazepin-1-yl]4-methyl ester, 4-[[(2,3-Dihydro-1,1,3,3-tetramethyl-2-oxo-1H-inden-5-yl)carbonyl]amino]benzoate] | – | – | < 0.1 | < 0.05 | < 0.05 |
| OP5215 acitretinate [Example 25] | – | – | < 0.05 | < 0.02 | < 0.02 |
| C=C(c1ccc(C(=O)O)cc1)c1cc2c(cc1C)C(C)(C)CCC2(C)C.COC(=O)C[C@](O)(CCCC(C)(C)O)C(=O)O[C@@H]1C(OC)=C[C@]23CCCN2CCc2cc4c(cc2[C@H]13)OCO4 [Example 7, homoharringtonine "bexarotenoate"] | – | – | < 0.02 | < 0.02 | < 0.02 |
| OP5215, Am 580 salt [Example 27] | – | – | < 0.02 | < 0.01 | < 0.01 |
